The test concerns the target MT1 melatonin receptor (Oryctolagus cuniculus, UniProt G1U149). In kind it is cell-based.

For orientation: EC50 means the concentration needed to bring the measured effect to its halfway point. A low value points to a more potent agent.

Chain of MT1 melatonin receptor (G1U149 1-312): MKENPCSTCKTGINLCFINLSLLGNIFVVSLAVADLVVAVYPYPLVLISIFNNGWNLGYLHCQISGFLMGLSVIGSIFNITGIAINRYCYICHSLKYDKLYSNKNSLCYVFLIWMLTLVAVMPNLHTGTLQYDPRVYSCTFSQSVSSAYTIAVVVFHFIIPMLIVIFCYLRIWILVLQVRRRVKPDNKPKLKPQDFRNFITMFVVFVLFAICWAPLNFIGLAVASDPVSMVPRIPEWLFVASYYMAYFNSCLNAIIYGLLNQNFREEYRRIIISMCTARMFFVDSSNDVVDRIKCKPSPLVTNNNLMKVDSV

`COc1ccc2[nH]cc(CCNC(C)=O)c2c1` [Melatonin] came in with an EC50 of 4 ± 1 nM.

These data come from publication PMC3748964 (Regulatory peptides, 2013).
